Laboratory results reported in US7829560B2, “1,4-disubstituted naphthalenes as inhibitors of P38 MAP kinase” (Arqule, Inc., priority 2004, dated 2010).
pIC50: −log10 of the molar value.

molecular target: T1, p38α (Homo sapiens, UniProt Q16539); experiment: p38 MAP Kinase assay: inhibition of ATF2 phosphorylation, ELISA; assay type: biochemical; conditions: 10 uM; substrate ATF2; read-out: [ENZ] P38 ALPHA, PCT INH, ELISA (10 uM;ATF2) (Percent)
T1 construct: p38 MAP Kinases are recombinant human full-length proteins with an amino-terminal GST fusion; GST (N); purchased Upstate Biotechnology Inc; host or cells: E. coli
T1 sequence (Q16539 whole entry, the tested form may be a part): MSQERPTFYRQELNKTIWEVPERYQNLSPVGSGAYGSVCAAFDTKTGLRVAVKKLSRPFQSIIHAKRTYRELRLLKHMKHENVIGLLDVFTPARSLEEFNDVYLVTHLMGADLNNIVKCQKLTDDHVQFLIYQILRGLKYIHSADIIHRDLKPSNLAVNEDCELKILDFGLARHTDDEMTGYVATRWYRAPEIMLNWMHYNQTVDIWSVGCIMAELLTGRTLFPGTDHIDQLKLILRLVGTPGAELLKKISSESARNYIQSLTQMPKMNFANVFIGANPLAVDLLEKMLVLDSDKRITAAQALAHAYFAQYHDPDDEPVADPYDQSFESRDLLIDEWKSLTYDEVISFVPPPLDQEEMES
Description: Compounds of the invention are screened for the ability to inhibit ATF2 phosphorylation by p38 MAP Kinase in vitro. The ability of compounds to inhibit ATF2 phosphorylation in this in vitro assay is correlated with the inhibition of p38 MAP Kinase and TNFα expression in vivo, and is therefore an indicator of potential in vivo therapeutic activity (Raingeaud, J., et al, J. Biol. Chem., 270: 7420-7426, 1995, Brinkman, M. N., et al, J. Biol. Chem. 274: 30882-30886, 1999 and Fuchs, S. Y. et al, J. Biol. Chem. 275: 12560-12564, 2000).
Materials: All kinases and the substrate ATF2 are acquired from Upstate Biotechnology Inc. p38 MAP Kinases are recombinant human full-length proteins with an amino-terminal GST fusion, expressed in and purified from E. coli. ATF2 is a GST fusion protein containing amino acids 19-96 of human ATF2 expressed in E. coli. All proteins are aliquoted and stored at −80° C.
Methods: p38 MAP Kinase assays are performed using an assay buffer containing 25 mM HEPES, pH 7.5, 10 mM MgCl2, 2 mM DTT, 20 mM β-glycerophosphate, 0.1 mM Na3VO4, 40 μM ATP and 1.25 μM of ATF2 and in the absence or presence of 1% human serum albumin, Method I and II, respectively, with 0.4-6 ng of protein depending on the kinase used. Compounds are serially diluted in DMSO and 2 μL of test compound at 25× final concentration is used. The vehicle control receives DMSO only. Test compounds are pre-incubated with 20 μl of enzyme in kinase buffer (25 mM HEPES, pH 7.5, 10 mM MgCl2, 2 mM DTT, 20 mM β-glycerophosphate, 0.1 mM Na3VO4 in the absence or presence of 1% human serum albumin, Method I and II, respectively) at room temperature for 15 minutes. […] The reactions are incubated for 30 minutes at 37° C. and terminated by the addition of 18 μl of 200 mM EDTA. An ELISA method (I or II) is used to measure the phosphorylation of ATF2 at Thr 69. Method I: 96-well high binding plates (Corning 3369) are coated with 50 μl of kinase reaction for 1 hour at 37° C. The coated plates are washed with 200 μl washing buffer (25 mM Tris HCl, pH 8.3, 192 mM glycine, 0.1% SDS and 0.05% Tween-20) three times. The plates are then washed three times with SuperBlock in TBS (Pierce, 37535). After blocking, plates are incubated with 50 μl of rabbit anti-phospho-ATF2 antibody (Cell Signaling, 9221L, 1:500) for 30 minutes at 37° C. Plates are washed three times with washing buffer prior to incubation with 50 μl HRP-conjugated goat anti-rabbit antibody (Cell Signaling, 7074, 1:500) for 30 minutes at 37° C. Plates are then washed three times with washing buffer before incubation with 50 μl of Ultra TMB-ELISA (Pierce, 34028) for 8 minutes at room temperature. Finally, 50 ul of phosphoric acid (1 M) is added to stop reactions and plate absorbance is read at 450 nm on a SpectraMax 250 plate reader. Method II: 96-well high binding plates (Corning 3369) are coated with 400 ng of monoclonal antibody against GST-tag (Cell signaling) in 100 μl containing sodium borate (pH 8.3) for 90 minutes at 37° C. The plates are washed with 200 μl washing buffer (25 mM Tris HCl, pH 7.2, 150 mM NaCl and Tween-20) three times and blocked with 200 μl of 5% nonfat milk for 30 minutes at room temperature. The plates are washed three times with washing buffer, 50 μl of stopped kinase reaction are added to each well and incubated for 80 minutes at 37° C. The plates are washed three times with 200 μl washing buffer, and the plates are incubated with 50 μl of rabbit anti-phospho-ATF2 antibody (Cell Signaling, 9221L, 1:500) for 30 minutes at 37° C. Plates are washed three times with washing buffer prior to incubation with 50 μl HRP-conjugated goat anti-rabbit antibody (Cell Signaling, 7074, 1:500) for 30 minutes at 37° C. Plates are washed three times with washing buffer before incubation with 50 μl of Ultra TMB-ELISA (Pierce, 34028) for 25 minutes at room temperature. Finally, 50 μl of phosphoric acid (1 M) is added to stop reactions and plate absorbance is read at 450 nm on a SpectraMax 250 plate reader. […]

Row | SMILES | inhibition at 10 µM [%]
1 | O=C(Nc1ccc(OCCN2CCOCC2)c2ccccc12)c1cccc(-c2cc(C(F)(F)F)cc(C(F)(F)F)c2)c1 [Compound B92] | 0
2 | Cc1ccc(-c2cccc(C(=O)Nc3ccc(OCCN4CCOCC4)c4ccccc34)c2)cc1 [Compound B93] | 34
3 | Cc1cccc(C)c1N1CCN(c2cccc(C(=O)Nc3ccc(OCCN4CCOCC4)c4ccccc34)n2)CC1 [Compound B146] | 7.5
4 | CCCCc1ccc(-c2cccc(C(=O)Nc3ccc(OCCN4CCOCC4)c4ccccc34)c2)cc1 [Compound B117] | 4
5 | CN1CCN(CCOc2ccc(NC(=O)c3ccnc(Cl)c3)c3ccccc23)CC1 [Compound B6] | 7.5
6 | O=C(Nc1ccc(OCCN2CCOCC2)c2ccccc12)c1cccc(-c2ccccc2Oc2ccccc2)c1 [Compound B115] | 10
7 | O=C(Nc1ccc(OCCN2CCOCC2)c2ccccc12)c1cccc(N2CCC(N3CCCC3)CC2)c1 [Compound B171] | 16
8 | C[C@@H]1CN(CCOc2ccc(NC(=O)c3ccnc(Cl)c3)c3ccccc23)C[C@H](C)O1 [Compound B8] | 36.5
9 | O=C(Nc1ccc(OCCN2CCOCC2)c2ccccc12)c1ccnc(N2CCC(Cc3ccccc3)CC2)c1 [Compound B124] | 7
10 | CCOC(=O)N1CCN(CCOc2ccc(NC(=O)c3ccc(CN4CCS(=O)(=O)CC4)cc3)c3ccccc23)CC1 [Compound B16] | 27.5
11 | O=C(Nc1ccc(OCCN2CCOCC2)c2ccccc12)c1cccc(C(F)(F)F)c1 [Compound B73] | 10
12 | O=C(Nc1ccc(OCCN2CCOCC2)c2ccccc12)c1cccc(N2CCc3ccccc3C2)c1 [Compound B168] | 36
13 | CC(C)c1cc(C(=O)Nc2ccc(OCCN3CCOCC3)c3ccccc23)c(O)c(C(C)C)c1 [Compound B76] | 0
14 | O=C(Nc1ccc(OCCN2CCOCC2)c2ccccc12)c1cccc(-c2ccc(Cl)cc2Cl)c1 [Compound B95] | 58
15 | O=C(Nc1ccc(OCCN2CCOCC2)c2ccccc12)c1ccnc(N2Cc3ccccc3C2)c1 [Compound B132] | 36
16 | CCC(C)N(C)c1cccc(C(=O)Nc2ccc(OCCN3CCOCC3)c3ccccc23)n1 (centres unmarked) [Compound B149] | 8.5
17 | CN1CCN(CCOc2ccc(NC(=O)c3ccc(-n4ccc(C(F)(F)F)n4)cc3)c3ccccc23)CC1 [Compound B9] | 21
18 | O=C(Nc1ccc(OCCN2CCOCC2)c2ccccc12)c1cccc(N2CCCCC2)n1 [Compound B142] | 33
19 | O=C(Nc1ccc(OCCN2CCCCC2)c2ccccc12)c1ccc(CN2CCS(=O)(=O)CC2)cc1 [Compound B14] | 6
20 | Cc1cc(C(=O)Nc2ccc(OCCN3CCOCC3)c3ccccc23)nn1C [Compound B79] | 1
21 | O=C(Nc1ccc(OCCN2CCOCC2)c2ccccc12)c1cc(C(F)(F)F)cc(C(F)(F)F)c1 [Compound B83] | 18
22 | O=C(Nc1ccc(OCCN2CCOCC2)c2ccccc12)c1cccc2c1Cc1ccccc1-2 [Compound B75] | 27
23 | O=C(Nc1ccc(OCCN2CCOCC2)c2ccccc12)c1cccc(NCc2ccc(F)cc2)c1 [Compound B170] | 46

Row | SMILES | inhibition at 10 µM [%]
24 | CN1CCN(CCOc2ccc(NC(=O)c3ccnc(N4CCOCC4)c3)c3ccccc23)CC1 [Compound B21] | 19.5
25 | O=C(Nc1ccc(OCCN2CCSCC2)c2ccccc12)c1ccc(-n2cccn2)cc1 [Compound B11] | 24
26 | CCOc1ccc(-c2cccc(C(=O)Nc3ccc(OCCN4CCOCC4)c4ccccc34)c2)cc1 [Compound B107] | 2
27 | C[C@@H]1CN(CCOc2ccc(NC(=O)c3ccc(-n4cccn4)cc3)c3ccccc23)C[C@H](C)O1 [Compound B12] | 16.5
28 | O=C(Nc1ccc(OCCN2CCCCC2)c2ccccc12)c1ccnc(Cl)c1 [Compound B7] | 21
29 | Cc1cc(C(=O)Nc2ccc(OCCN3CCOCC3)c3ccccc23)cc(N2CCC(N3CCCC3)CC2)n1 [Compound B152] | 0
30 | COc1ccc(Cl)cc1-c1cccc(C(=O)Nc2ccc(OCCN3CCOCC3)c3ccccc23)c1 [Compound B111] | 50
31 | CSc1ccccc1-c1cccc(C(=O)Nc2ccc(OCCN3CCOCC3)c3ccccc23)c1 [Compound B116] | 54
32 | O=C(Nc1ccc(OCCN2CCOCC2)c2ccccc12)c1cccc(-c2cc(Cl)cc(Cl)c2)c1 [Compound B96] | 31
33 | O=C(Nc1ccc(OCCN2CCOCC2)c2ccccc12)c1cccc(N2CCC(c3ccccc3)CC2)n1 [Compound B72] | 0
34 | O=C(Nc1ccc(OCCN2CCOCC2)c2ccccc12)C1=CC=CC(C(F)(F)F)C1Cl (centres unmarked) [Compound B81] | 6
35 | CCN(C)c1cccc(C(=O)Nc2ccc(OCCN3CCOCC3)c3ccccc23)n1 [Compound B148] | 15.5
36 | C[C@@H]1CN(CCOc2ccc(NC(=O)c3ccnc(N4CCOCC4)c3)c3ccccc23)C[C@H](C)O1 [Compound B23] | 38
37 | CN(c1cccc(C(=O)Nc2ccc(OCCN3CCOCC3)c3ccccc23)n1)C1CCCCC1 [Compound B137] | 32
38 | O=C(Nc1ccc(OCCN2CCOCC2)c2ccccc12)c1cccc(/C=C/c2ccccc2)c1 [Compound B98] | 15
39 | CC1CCCN(c2cccc(C(=O)Nc3ccc(OCCN4CCOCC4)c4ccccc34)n2)C1 (centres unmarked) [Compound B69] | 34
40 | O=C(Nc1ccc(OCCN2CCOCC2)c2ccccc12)c1ccc(CN2CCS(=O)(=O)CC2)cc1 [Compound B18] | 10.5
41 | O=C(Nc1ccc(OCCN2CCOCC2)c2ccccc12)c1cccc2c1C(=O)c1ccccc1-2 [Compound B74] | 31
42 | O=C(Nc1ccc(OCCN2CCOCC2)c2ccccc12)c1cccc(-c2ccc(C3CCCCC3)cc2)c1 [Compound B118] | 0
43 | CCOC(=O)N1CCN(CCOc2ccc(NC(=O)c3cccc(N4CCOCC4)c3)c3ccccc23)CC1 [Compound B15] | 18
44 | Cc1cc(C(=O)Nc2ccc(OCCN3CCOCC3)c3ccccc23)cc(N2CCSC2)n1 [Compound B151] | 0
45 | CC1CCCN1c1cccc(C(=O)Nc2ccc(OCCN3CCOCC3)c3ccccc23)n1 (centres unmarked) [Compound B144] | 17

same assay, conditions: ATF2 phosphorylation; read-out: [ENZ] P38 ALPHA, IC50, ELISA

Row | SMILES | pIC50
46 | Cc1ccc(-c2cccc(C(=O)Nc3ccc(OCCN4CCOCC4)c4ccccc34)c2)cc1 [Compound B93] | < 5.00
47 | O=C(Nc1ccc(OCCN2C(=O)c3ccccc3C2=O)c2ccccc12)c1cc(F)cc(N2CCOCC2)c1 [Compound B187] | < 5.00
48 | O=C(Nc1ccc(OCCN2CCOCC2)c2ccccc12)c1cccc(-c2ccc(Cl)cc2Cl)c1 [Compound B95] | 5.76
49 | O=C(Nc1ccc(OCCN2CCOCC2)c2ccccc12)c1cccc(N2CCCCC2)n1 [Compound B142] | < 4.00
50 | O=C(Nc1ccc(OCCN2CCOCC2)c2ccccc12)c1cccc2c1Cc1ccccc1-2 [Compound B75] | < 5.00
51 | COc1ccc(Cl)cc1-c1cccc(C(=O)Nc2ccc(OCCN3CCOCC3)c3ccccc23)c1 [Compound B111] | 5.30
52 | CSc1ccccc1-c1cccc(C(=O)Nc2ccc(OCCN3CCOCC3)c3ccccc23)c1 [Compound B116] | 5.56
53 | O=C(Nc1ccc(OCCN2CCOCC2)c2ccccc12)c1cccc(-c2cc(Cl)cc(Cl)c2)c1 [Compound B96] | < 4.00
54 | O=C(Nc1ccc(OCc2ccco2)c2ccccc12)c1cc(F)cc(N2CCOCC2)c1 [Compound B223] | 4.89
55 | CN(c1cccc(C(=O)Nc2ccc(OCCN3CCOCC3)c3ccccc23)n1)C1CCCCC1 [Compound B137] | < 4.00
56 | O=C(Nc1ccc(OCCN2CCOCC2)c2ccccc12)c1cccc(/C=C/c2ccccc2)c1 [Compound B98] | < 5.00
